Data reported in patent publication US12624018B1, “Inhibitors of RIPK2 and medical uses thereof” (Odyssey Therapeutics, Inc., priority 2022, dated 2026).
Where two headings read alike, the source gives them in different places.

Columns and labels:
RIPK2 enzyme = biological target: T1, RIPK2 enzyme (Homo sapiens, UniProt O43353); experiment: RIPK2 inhibition (ADP-Glo Kinase Assay); assay type: biochemical; details: RIPK2 5 nM, ATP 150 μM, MBP substrate, read-out: RIPK2 IC50
T1 construct: purchased Carna 09-128
How it was run: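 Human RIPK2 (5 nM) preincubated with compound 30 min at room temperature in 50 mM HEPES pH 7.5, 10 mM MgCl2, 2 mM DTT, 1 mM EGTA, 0.01% Brij-35, 0.05% BSA; native swine MBP as substrate. ADP formed quantified by ADP-Glo luminescence; percent inhibition relative to DMSO and no-enzyme controls.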

human NOD2 signaling = experiment: Inhibition of human NOD2 signaling in HEK-Blue-hNOD2 cells (L18-MDP stimulated, SEAP reporter); assay type: cell-based; details: NOD2 ligand stimulation, SEAP reporter, read-out: hNOD2 IC50
How it was run: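 HEK-Blue-hNOD2 cells (HEK293 with NOD2 and SEAP reporter), 12500/well, treated with 10-point 3-fold compound dilutions plus L18-MDP 0.5 ng/mL final, 24 h at 37 °C. Supernatant SEAP read with QUANTI-Blue after 3 h at 620 nm; IC50 by 4-parameter fit vs DMSO±L18-MDP controls.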

[1] = system: TNF-alpha secretion in human whole blood; experiment: Inhibition of TNF-alpha secretion in human whole blood (IFN-gamma primed, L18-MDP stimulated); assay type: cell-based; details: L18-MDP 100 ng/mL, read-out: Human Whole Blood TNFα IC50
Method: Materials: Assay medium consisted of RPMI 1640 medium (catalogue number: 11875119) and 10% heat inactivated FBS (Cytvia). U-PLEX Biomarker Assay (cat #K15067L-4) to detect levels of TNF-alpha was purchased from Meso Scale Discovery. Heparinized whole blood from healthy donors/volunteers was obtained through Research Blood Components, LLC.
Test compounds were prepared into a 10 mM DMSO solution and serially diluted into 9 points using a 3-fold dilution in a 96 well plate. A 10× working stock solution of recombinant human IFN-gamma (final concentration of 10 ng/mL) was prepared in assay medium and used to prepare a 10× solution of test compound. 20 μL of 10×IFN-gamma and test compound (or DMSO control) was added to a 96-well plate. 160 μL of heparinized whole blood obtained from healthy donors was dispensed into individual wells of the 96-well plate and placed on a plate shaker (150 rpm) and incubated for 60 min at 37° C. in a CO2 incubator. Subsequently, 20 μL of L18-MDP (final concentration of 100 ng/mL) was added to the appropriate wells and further incubated for 16 hours on a plate shaker (150 rpm) at 37° C. in a CO2 incubator. The final concentration of DMSO was 0.05% (v/v) in all wells. After incubation, 100 μL of DPBS was added per well, mixed by shaking at 500 rpm for 2 minutes, followed by centrifugation (400×g for 10 minutes) and collection of supernatants. TNF-alpha in supernatants was measured using MSD immunoassay (MesoScale Discovery). 4-parametric curve fit was used to determine the test compound concentration that results in 50% reduction of TNF-alpha concentration in supernatant relative to assay controls.

[2] = biological target: T2, RIPK2 and XIAP protein-protein interaction (Homo sapiens, UniProt O43353); experiment: Inhibition of the interaction of RIPK2 with XIAP (NanoBRET in HEK293T cells); assay type: cell-based; details: RIPK2 HaloTag / XIAP NanoLuc, read-out: NanoBRET Scaffolding IC50
T2 construct: the N-terminus of full-length RIPK2 was appended with the HaloTag fusion protein; expressed in transfected cells; host or cells: HEK293T
How it was run: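 HEK293T cells transiently co-transfected with HaloTag-RIPK2 (N-terminal) and XIAP-NanoLuc (C-terminal) full-length fusions, grown 24 h at 37° C. in Opti-MEM with 4% FBS. Compounds tested as 10-point 3-fold dilutions; NanoBRET ratio taken as 618 nm acceptor over 460 nm donor emission.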

[3] = Homo sapiens, HEK-Blue hNOD2, HEK-Blue-hNOD2 cells

T2 sequence (O43353 whole entry, the tested form may be a part): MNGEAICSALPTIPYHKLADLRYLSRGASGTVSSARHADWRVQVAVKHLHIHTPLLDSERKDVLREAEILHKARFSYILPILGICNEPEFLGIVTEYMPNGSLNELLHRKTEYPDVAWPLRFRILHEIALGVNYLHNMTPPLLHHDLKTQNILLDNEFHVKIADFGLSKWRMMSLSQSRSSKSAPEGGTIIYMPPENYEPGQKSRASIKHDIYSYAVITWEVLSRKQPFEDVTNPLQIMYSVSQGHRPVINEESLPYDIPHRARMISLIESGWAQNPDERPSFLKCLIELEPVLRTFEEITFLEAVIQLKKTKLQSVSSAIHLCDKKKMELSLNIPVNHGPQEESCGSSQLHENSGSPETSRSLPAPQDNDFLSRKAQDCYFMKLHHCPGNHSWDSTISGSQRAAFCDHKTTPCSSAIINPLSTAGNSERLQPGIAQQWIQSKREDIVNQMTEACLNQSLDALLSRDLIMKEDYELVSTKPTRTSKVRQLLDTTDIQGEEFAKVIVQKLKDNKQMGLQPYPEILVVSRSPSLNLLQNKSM
T1 sequence (O43353 1-299 limits assumed): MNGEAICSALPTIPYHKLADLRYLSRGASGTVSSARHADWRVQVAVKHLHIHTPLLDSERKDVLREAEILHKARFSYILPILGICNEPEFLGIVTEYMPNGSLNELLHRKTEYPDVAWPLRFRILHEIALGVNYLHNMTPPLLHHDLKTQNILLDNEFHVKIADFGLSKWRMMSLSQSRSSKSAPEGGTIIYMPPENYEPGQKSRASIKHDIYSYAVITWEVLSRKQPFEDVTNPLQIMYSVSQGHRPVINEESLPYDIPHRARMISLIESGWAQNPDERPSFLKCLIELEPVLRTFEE

An IC50 (RIPK2 enzyme) of under 2.5 nM, an IC50 (human NOD2 signaling; [3]) of 2 nM and an IC50 ([1]; Homo sapiens, 16 h) of 14 nM were found for `Cc1cc(CC(=O)Nc2noc(C(C)(C)C)n2)ccc1Oc1ccnc2ccc(S(C)(=O)=O)cc12` [Compound 182, N-(5-(tert-butyl)-1,2,4-oxadiazol-3-yl)-2-(3-methyl-4-((6-(methylsulfonyl)quinolin-4-yl)oxy)phenyl) acetamide] in this work. The IC50 [2] was 18 nM.

An IC50 (RIPK2 enzyme) of 4.8 nM, an IC50 (human NOD2 signaling; [3]) of 39.3 nM and an IC50 ([1]; Homo sapiens, 16 h) of 5 nM were found for `CC(C)(C)n1cc(NC(=O)Cc2ccc(Oc3ccnc4ccc(S(C)(=N)=O)cc34)cc2F)cn1` (stereo not shown) [Compound 43, N-(1-(tert-butyl)-1H-pyrazol-4-yl)-2-(2-fluoro-4-((6-(S-methylsulfonimidoyl)quinolin-4-yl)oxy)phenyl)acetamide] in this work. It also gave an IC50 [2] of 218 nM.

An IC50 (RIPK2 enzyme) of under 2.5 nM, an IC50 (human NOD2 signaling; [3]) of 7.2 nM and an IC50 ([1]; Homo sapiens, 16 h) of 7 nM were found for `Cc1cc(CC(=O)Nc2cnn(C(C)(C)C)c2)ccc1Oc1ncnc2ccc(CN3CCNCC3)cc12` [Compound 253, N-(1-(tert-butyl)-1H-pyrazol-4-yl)-2-(3-methyl-4-((6-(piperazin-1-ylmethyl)quinazolin-4-yl)oxy)phenyl)acetamide] in this work. For the same compound, the IC50 [2] was 174 nM.

An IC50 (RIPK2 enzyme) of under 2.5 nM, an IC50 (human NOD2 signaling; [3]) of 3.4 nM and an IC50 ([1]; Homo sapiens, 16 h) of 49 nM were found for `Cc1cc(CC(=O)Nc2cnn(C(C)(C)C)c2)cc(F)c1Oc1ccnc2ccc(S(C)(=O)=O)cc12` [Compound 299, N-(1-(tert-butyl)-1H-pyrazol-4-yl)-2-(3-fluoro-5-methyl-4-((6-(methylsulfonyl)quinolin-4-yl)oxy)phenyl)acetamide] in this work. The IC50 [2] was 73 nM.

An IC50 (RIPK2 enzyme) of under 2.5 nM, an IC50 (human NOD2 signaling; [3]) of 0.2 nM and an IC50 ([1]; Homo sapiens, 16 h) of 2 nM were found for `Cc1c(Oc2ccnc3ccc(S(=O)(=O)C4CC4)cc23)ccc(CC(=O)Nc2cnn(C(C)(C)C)c2)c1F` [Compound 174, N-(1-(tert-butyl)-1H-pyrazol-4-yl)-2-(4-((6-(cyclopropylsulfonyl)quinolin-4-yl)oxy)-2-fluoro-3-methylphenyl)acetamide] in this work. It also gave an IC50 [2] of 5 nM.

An IC50 (RIPK2 enzyme) of under 2.5 nM, an IC50 (human NOD2 signaling; [3]) of 1.3 nM and an IC50 ([1]; Homo sapiens, 16 h) of 8 nM were found for `CCS(=O)(=O)c1ccc2nccc(Oc3cc(F)c(CC(=O)Nc4cnn(C(C)(C)C)c4)cc3C)c2c1` [Compound 306, N-(1-(tert-butyl)-1H-pyrazol-4-yl)-2-(4-((6-(ethylsulfonyl)quinolin-4-yl)oxy)-2-fluoro-5-methylphenyl)acetamide] in this work.

An IC50 (RIPK2 enzyme) of under 2.5 nM, an IC50 (human NOD2 signaling; HEK-Blue-hNOD2 cells) of 1.4 nM and an IC50 ([1]; 16 hours) of 4 nM were found for `CCS(=N)(=O)c1ccc2nccc(Oc3ccc(CC(=O)Nc4cnn(C(C)(C)C)c4)cc3C)c2c1` (single isomer, unassigned) [Compound 546, N-(1-(tert-butyl)-1H-pyrazol-4-yl)-2-(4-((6-(ethylsulfonimidoyl)quinolin-4-yl)oxy)-3-methylphenyl) acetamide] in this work. For the same compound, the IC50 [2] was 204 nM.

An IC50 (RIPK2 enzyme) of under 2.5 nM, an IC50 (human NOD2 signaling; [3]) of 4 nM and an IC50 ([1]; Homo sapiens, 16 h) of 24 nM were found for `CC(C)(C)n1cc(NC(=O)Cc2ccc(Oc3ccnc4ccc(S(C)(=N)=O)cc34)c(Cl)c2)cn1` (single isomer, unassigned) [Compound 197, N-(1-(tert-butyl)-1H-pyrazol-4-yl)-2-(3-chloro-4-((6-(S-methylsulfonimidoyl)quinolin-4-yl)oxy)phenyl)acetamide] in this work. The IC50 [2] was 93 nM.

An IC50 (RIPK2 enzyme) of under 2.5 nM, an IC50 (human NOD2 signaling; [3]) of 0.3 nM and an IC50 [2] of 47.5 nM were found for `Cc1cc(CC(=O)Nc2cnn(C(C)(C)C)c2)ccc1Oc1ccnc2ccc(C(N)=O)cc12` [Compound 487, 4-(4-(2-((1-(tert-butyl)-1H-pyrazol-4-yl)amino)-2-oxoethyl)-2-methylphenoxy)quinoline-6-carboxamide] in this work.

An IC50 (RIPK2 enzyme) of under 2.5 nM, an IC50 (human NOD2 signaling; [3]) of 1.1 nM and an IC50 [2] of 21.9 nM were found for `Cc1cc(CC(=O)Nc2cnn(C34CC(C3)C4)c2)ccc1Oc1ccnc2ccc(C(N)=O)cc12` [Compound 499, 4-(4-(2-((1-(bicyclo[1.1.1]pentan-1-yl)-1H-pyrazol-4-yl)amino)-2-oxoethyl)-2-methylphenoxy)quinoline-6-carboxamide] in this work.

An IC50 (RIPK2 enzyme) of under 2.5 nM, an IC50 (human NOD2 signaling; [3]) of 0.5 nM and an IC50 [2] of 70.8 nM were found for `Cc1cc(CC(=O)Nc2cnn(C(C)(C)C)c2)ccc1Oc1ccnc2cc(C)c(S(C)(=O)=O)cc12` [Compound 495, N-(1-(tert-butyl)-1H-pyrazol-4-yl)-2-(3-methyl-4-((7-methyl-6-(methylsulfonyl)quinolin-4-yl)oxy)phenyl)acetamide] in this work.

An IC50 (RIPK2 enzyme) of under 2.5 nM, an IC50 (human NOD2 signaling; [3]) of 0.2 nM and an IC50 [2] of 63.1 nM were found for `Cc1c(Oc2ccnc3ccc(C(N)=O)cc23)cc(F)c(CC(=O)Nc2cnn(C(C)(C)C)c2)c1F` [Compound 503, 4-(4-(2-((1-(tert-butyl)-1H-pyrazol-4-yl)amino)-2-oxoethyl)-3,5-difluoro-2-methylphenoxy)quinoline-6-carboxamide] in this work.

An IC50 (RIPK2 enzyme) of under 2.5 nM, an IC50 (human NOD2 signaling; [3]) of 1.2 nM and an IC50 [2] of 42.4 nM were found for `[2H]C([2H])([2H])NC(=O)c1cc2c(Oc3c(C)cc(CC(=O)Nc4cnn(C(C)(C)C)c4)cc3C)ccnc2cc1F` [Compound 583, 4-(4-(2-((1-(tert-butyl)-1H-pyrazol-4-yl)amino)-2-oxoethyl)-2,6-dimethylphenoxy)-7-fluoro-N-(methyl-d3)quinoline-6-carboxamide] in this work.

An IC50 (RIPK2 enzyme) of under 2.5 nM, an IC50 (human NOD2 signaling; [3]) of 8.4 nM and an IC50 [2] of 172 nM were found for `CNC(=O)c1ccc2nccc(Oc3cc(F)c(CC(=O)Nc4cnn(C56CC(C5)C6)c4)cc3Cl)c2c1` [Compound 510, 4-(4-(2-((1-(bicyclo[1.1.1]pentan-1-yl)-1H-pyrazol-4-yl)amino)-2-oxoethyl)-2-chloro-5-fluorophenoxy)-N-methylquinoline-6-carboxamide] in this work.

An IC50 (RIPK2 enzyme) of under 2.5 nM, an IC50 (human NOD2 signaling; [3]) of 0.2 nM and an IC50 [2] of 3.4 nM were found for `CNC(=O)c1ccc2nccc(Oc3cc(F)c(CC(=O)Nc4cnn(C(C)(C)C)c4)c(F)c3C)c2c1` [Compound 504, 4-(4-(2-((1-(tert-butyl)-1H-pyrazol-4-yl)amino)-2-oxoethyl)-3,5-difluoro-2-methylphenoxy)-N-methylquinoline-6-carboxamide] in this work.

An IC50 (RIPK2 enzyme) of under 2.5 nM, an IC50 (human NOD2 signaling; [3]) of 24.4 nM and an IC50 [2] of 179 nM were found for `Cc1cc(CC(=O)Nc2cnn(C(C)(C)C)c2)c(F)cc1Oc1ccnc2ccc(C(C)(C)C(N)=O)cc12` [Compound 568, 2-(4-(4-(2-((1-(tert-butyl)-1H-pyrazol-4-yl)amino)-2-oxoethyl)-5-fluoro-2-methylphenoxy)quinolin-6-yl)-2-methylpropanamide] in this work.

An IC50 (RIPK2 enzyme) of under 2.5 nM, an IC50 (human NOD2 signaling; [3]) of 1.3 nM and an IC50 [2] of 44.6 nM were found for `Cc1cc(CC(=O)Nc2cnn(C(C)(C)C)c2)cc(Cl)c1Oc1ccnc2cc(F)c(C(N)=O)cc12` [Compound 584, 4-(4-(2-((1-(tert-butyl)-1H-pyrazol-4-yl)amino)-2-oxoethyl)-2-chloro-6-methylphenoxy)-7-fluoroquinoline-6-carboxamide] in this work.

An IC50 (RIPK2 enzyme) of under 2.5 nM, an IC50 (human NOD2 signaling; [3]) of 0.6 nM and an IC50 [2] of 10.8 nM were found for `CC(C)(C)n1cc(NC(=O)Cc2cc(Cl)c(Oc3ccnc4ccc(C(N)=O)cc34)cc2F)cn1` [Compound 497, 4-(4-(2-((1-(tert-butyl)-1H-pyrazol-4-yl)amino)-2-oxoethyl)-2-chloro-5-fluorophenoxy)quinoline-6-carboxamide] in this work.

An IC50 (RIPK2 enzyme) of under 2.5 nM, an IC50 (human NOD2 signaling; [3]) of 0.4 nM and an IC50 [2] of 20.5 nM were found for `[2H]C([2H])([2H])NC(=O)c1cc2c(Oc3cc(F)c(CC(=O)Nc4cnn(C(C)(C)C)c4)cc3C)ccnc2cc1F` [Compound 494, 4-(4-(2-((1-(tert-butyl)-1H-pyrazol-4-yl)amino)-2-oxoethyl)-5-fluoro-2-methylphenoxy)-7-fluoro-N-(methyl-d3)quinoline-6-carboxamide] in this work.
